In patent publication US20250221966A1, “RXFP1 AGONISTS” (BRISTOL-MYERS SQUIBB COMPANY, priority 2021, published 2025):

Molecular target: T1, human RXFP1 (Homo sapiens, UniProt Q9HBX9)
T1 construct: expressed in transfected cells
T1 sequence (Q9HBX9 1-757): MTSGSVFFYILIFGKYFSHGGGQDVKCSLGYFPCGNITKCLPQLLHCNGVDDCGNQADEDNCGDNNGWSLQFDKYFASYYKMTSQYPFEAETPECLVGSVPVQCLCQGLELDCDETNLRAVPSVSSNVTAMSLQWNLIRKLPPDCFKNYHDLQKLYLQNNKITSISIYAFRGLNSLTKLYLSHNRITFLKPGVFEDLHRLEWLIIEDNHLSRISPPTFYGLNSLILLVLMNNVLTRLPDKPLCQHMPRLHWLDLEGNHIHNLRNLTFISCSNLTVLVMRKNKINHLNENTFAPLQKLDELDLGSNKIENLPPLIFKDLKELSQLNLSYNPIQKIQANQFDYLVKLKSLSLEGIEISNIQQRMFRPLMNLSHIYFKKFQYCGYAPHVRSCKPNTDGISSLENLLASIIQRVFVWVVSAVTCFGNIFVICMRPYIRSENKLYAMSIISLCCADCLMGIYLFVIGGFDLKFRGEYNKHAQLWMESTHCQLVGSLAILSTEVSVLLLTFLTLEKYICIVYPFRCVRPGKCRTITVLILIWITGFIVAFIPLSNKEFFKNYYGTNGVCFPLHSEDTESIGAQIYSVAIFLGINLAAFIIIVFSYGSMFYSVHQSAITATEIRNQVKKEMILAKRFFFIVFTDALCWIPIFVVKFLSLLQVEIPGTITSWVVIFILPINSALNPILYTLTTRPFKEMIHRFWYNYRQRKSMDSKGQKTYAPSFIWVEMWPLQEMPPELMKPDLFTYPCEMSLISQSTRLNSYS
Assay: RXFP1 cAMP assay (hRXFP1 HEK293 cAMP assay, HTRF)
Type: cell-based
Details: HEK293 cells stably expressing human RXFP1, 30 min at room temperature, read-out: cAMP hRXFP1 HEK293 Assay EC50
Description: RXFP1 Cyclic Adenosine Monophosphate (cAMP) Assays. […] Cells were dissociated and suspended in assay buffer. The assay buffer was HBSS buffer (with calcium and magnesium) containing 20 mM HEPES, 0.05% BSA, and 0.5 mM IBMX. Cells (3000 cells per well, except 1500 cell per well for HEK293 cells stably expressing human RXFP1) were added to 384-well Proxiplates (Perkin-Elmer). Cells were immediately treated with test compounds in DMSO (2% final) at final concentrations in the range of 0.010 nM to 50 μM. Cells were incubated for 30 min at room temperature. The level of intracellular cAMP was determined using the HTRF HiRange cAMP assay reagent kit (Cisbio) according to manufacturer's instructions. Solutions of cryptate conjugated anti-cAMP and d2 fluorophore-labelled cAMP were made in a supplied lysis buffer separately. Upon completion of the reaction, the cells were lysed with equal volume of the d2-cAMP solution and anti-cAMP solution. […] The potency and activity of a compound to […] cAMP production was then determined by fitting to a 4-parametric logistic equation from a plot of cAMP level versus compound concentrations.

| SMILES | EC50 [µM] |
| --- | --- |
| COc1ccc(N2CCCC(C(=O)O)C2)cc1C(=O)N[C@@H]1C2CCC(/C2=C/c2ccccc2)[C@@H]1C(=O)Nc1ccc(F)c(C(F)(F)F)c1 (stereo partly shown) [Example 136] | 0.27 |
| COc1c(F)cc(C2=NOC3CC(C(C)O)CC23)cc1C(=O)N[C@H]1[C@@H](C(=O)Nc2ccc(F)c(C(F)(F)F)c2)[C@H]2CC[C@@H]1/C2=C\C1CC1 (stereo partly shown) [compound 850] | 0.0027 |
| COc1ccc(C2=NOC3COCC23)cc1C(=O)N[C@H]1[C@@H](C(=O)NCC2C(C)(C)C2(C)C)[C@H]2CC[C@@H]1/C2=C\C1CC1 (stereo partly shown) [compound 586] | 0.0791 |
| COc1ccc(-c2ccc3[nH]cc(C(=O)O)c3c2)cc1C(=O)N[C@@H]1C2CCC(/C2=C/C(F)(F)F)[C@@H]1C(=O)Nc1ccc(F)c(C(F)(F)F)c1 (stereo partly shown) [compound 295] | 0.053 |
| COc1ccc(-c2cc(C(=O)O)ccc2F)cc1C(=O)N[C@@H]1C2CCC(/C2=C/C2CC2)[C@@H]1C(=O)NC(C)C (stereo partly shown) [compound 300] | 0.575 |
| COc1ccc(-c2cc(C(COC(=O)NC3CCC3)C(F)(F)F)ccc2F)cc1C(=O)N[C@H]1[C@@H](C(=O)Nc2ccc(F)c(C(F)(F)F)c2)[C@H]2CC[C@@H]1/C2=C\C1CCCC1 (stereo partly shown) [compound 894] | 0.0013 |
| COc1ccc(C2=NOC3COCC23)cc1C(=O)N[C@H]1[C@@H](C(=O)NCc2c(C)cccc2C)[C@H]2CC[C@@H]1/C2=C\C1CC1 (stereo partly shown) [compound 540] | 0.0294 |
| COc1ccc(-c2cc(C(OC(=O)NC3CC3)C(F)(F)F)ccc2F)cc1C(=O)N[C@@H]1C2CCC(/C2=C/C2CC2)[C@@H]1C(=O)Nc1ccc(F)c(C(F)(F)F)c1 (stereo partly shown) [compound 208] | 0.001 |
| COc1ccc(C2=CCNCC2)cc1C(=O)N[C@@H]1C2CCC(C2=C(C)C)[C@@H]1C(=O)Nc1ccc(F)c(C(F)(F)F)c1 (stereo partly shown) [compound 148] | 0.91 |
| COc1c(I)cc(I)cc1C(=O)N[C@@H]1C2CCC(/C2=C/c2ccccc2)[C@@H]1C(=O)Nc1ccc(F)c(C(F)(F)F)c1 (stereo partly shown) [compound 132] | 0.22 |
| COc1cc(C)c(-c2nnc(CO)s2)cc1C(=O)N[C@H]1[C@@H](C(=O)N[C@H](C)C2(C)CC2)[C@H]2CC[C@@H]1/C2=C\C1CC1 [compound 810] | 0.0047 |
| COc1ccc(-c2cc(C3=NOC(CO)C3)ccc2F)cc1C(=O)N[C@H]1[C@@H](C(=O)Nc2ccc(F)c(C(F)(F)F)c2)[C@H]2CC[C@@H]1/C2=C\C1CC1 (stereo partly shown) [compound 905] | 0.007 |
| COc1ccc(-c2cc(C(OC(=O)NCCC(F)(F)F)C(F)(F)F)ccc2F)cc1C(=O)N[C@@H]1C2CCC(/C2=C/C2CC2)[C@@H]1C(=O)Nc1ccc(F)c(C(F)(F)F)c1 (stereo partly shown) [compound 213] | 0.002 |
| COc1ccc(C2=NOC(CO)C2)cc1C(=O)N[C@@H]1C2CCC(/C2=C/C2CC2)[C@@H]1C(=O)Nc1ccc(F)c(C(F)(F)F)c1 (stereo partly shown) [compound 382] | 0.118 |
| COc1ccc(C2=NOC(C(C)O)C2)cc1C(=O)N[C@H]1[C@@H](C(=O)Nc2ccc(F)c(C(F)(F)F)c2)[C@H]2CC[C@@H]1/C2=C\C1CC1 (single isomer, unassigned) [compound 598] | 0.102 |
| COc1ccc(C2=NOC3C(O)CC(O)C23)cc1C(=O)N[C@H]1[C@@H](C(=O)Nc2ccc(F)c(C(F)(F)F)c2)[C@H]2CC[C@@H]1/C2=C\C1CC1 (single isomer, unassigned) [compound 674] | 0.481 |
| COc1cc(F)c(F)cc1C(=O)N[C@@H]1C2CCC(/C2=C/c2cccc(C#N)c2)[C@@H]1C(=O)Nc1ccc(F)c(C(F)(F)F)c1 (stereo partly shown) [compound 59] | 0.89 |
| COc1ccc(C2=NOC(C)(C)N2C(C)C)cc1C(=O)N[C@H]1[C@@H](C(=O)Nc2ccc(F)c(C(F)(F)F)c2)[C@H]2CC[C@@H]1/C2=C\C1CC1 [Example 591] | 0.0866 |

Further molecules by falling EC50, results first:

| EC50 [µM] | SMILES |
| --- | --- |
| 4.98 | O=C(N[C@H]1[C@@H](C(=O)Nc2ccc(F)c(C(F)(F)F)c2)[C@H]2CC[C@@H]1/C2=C\C1CC1)c1cc(C2=NOC3CC(CO)CC23)ccc1F (single isomer, unassigned) [compound 723] |
| 0.639 | COc1ccc(C2CCCN(C(=O)C(=O)O)C2)cc1C(=O)NC1C2CCC(/C2=C/C(F)(F)F)C1C(=O)Nc1ccc(F)c(C(F)(F)F)c1 (stereo not shown) [compound 368] |
| 0.283 | COc1ccc(-c2cc(C(=O)O)ccc2F)cc1C(=O)N[C@H]1[C@@H](CNc2ccc(F)c(C(F)(F)F)c2)[C@H]2CC[C@@H]1/C2=C\C1CC1 [Example 258, 3′-(((1R,2R,3R,4R,Z)-7-(cyclopropylmethylene)-3-(((4-fluoro-3-(trifluoromethyl)phenyl)amino)methyl)bicyclo[2.2.1]heptan-2-yl)carbamoyl)-6-fluoro-4′-methoxy-[1,1′-biphenyl]-3-carboxylic acid] |
| 0.262 | COc1ccc(C2=NOC3COCC23)cc1C(=O)N[C@H]1[C@@H](C(=O)NCCc2cccc(C)c2)[C@H]2CC[C@@H]1/C2=C\C1CC1 (stereo partly shown) [compound 650] |
| 0.24 | COc1cc(F)c(F)cc1C(=O)N[C@@H]1C2CCC(/C2=C/c2ccccc2)[C@]1(F)C(=O)Nc1ccc(F)c(C(F)(F)F)c1 (stereo partly shown) [Example 53] |
| 0.214 | COc1ccc(-c2cc(C(=O)N3CC[C@H](O)C3)on2)cc1C(=O)N[C@H]1[C@@H](C(=O)Nc2ccc(F)c(C(F)(F)F)c2)[C@H]2CC[C@@H]1/C2=C\C1CC1 [compound 640] |
| 0.139 | COc1ccc(C2=NOC(C3(O)CCCCC3)C2)cc1C(=O)N[C@H]1[C@@H](C(=O)Nc2ccc(F)c(C(F)(F)F)c2)[C@H]2CC[C@@H]1/C2=C\C1CC1 (single isomer, unassigned) [compound 615] |
| 0.0808 | COc1ccc(C2=NOC3CC(C(N)=O)CC23)cc1C(=O)N[C@H]1[C@@H](C(=O)Nc2ccc(F)c(C(F)(F)F)c2)[C@H]2CC[C@@H]1/C2=C\C1CC1 (single isomer, unassigned) [compound 587] |
| 0.027 | COc1cc(F)c(F)cc1C(=O)N[C@@H]1C2CCC(/C2=C/c2ccc(F)cc2)[C@@H]1C(=O)Nc1ccc(F)c(C(F)(F)F)c1 (stereo partly shown) [compound 41] |
| 0.024 | COC(=O)N1CC2ON=C(c3ccc(OC)c(C(=O)N[C@H]4[C@@H](C(=O)Nc5ccc(F)c(C(F)(F)F)c5)[C@H]5CC[C@@H]4/C5=C\C4CC4)c3)C2C1 (stereo partly drawn) [Example 438, methyl 3-(3-(((1R,2R,3S,4R,Z)-7-(cyclopropylmethylene)-3-((4-fluoro-3-(trifluoromethyl)phenyl)carbamoyl)bicyclo[2.2.1]heptan-2-yl)carbamoyl)-4-methoxyphenyl)-3a,4,6,6a-tetrahydro-5H-pyrrolo[3,4-d]isoxazole-5-carboxylate] |
| 0.023 | COc1ccc(C2=NOC(CO)C2)cc1C(=O)N[C@@H]1C2CCC(/C2=C/C2CC2)[C@@H]1C(=O)Nc1ccc(F)c(C(F)(F)F)c1 (stereo partly shown) [compound 380] |
| 0.0095 | COc1ccc(C2=NOC3CC(CO)CC23)cc1C(=O)N[C@H]1[C@@H](C(=O)NC2CCCC2)[C@H]2CC[C@@H]1/C2=C\C1CC1 (stereo partly shown) [compound 493] |
| 0.0082 | COc1ccc(-c2cc([C@H](O)C(F)(F)F)ccc2F)cc1C(=O)N[C@H]1[C@@H](C(=O)Nc2ccc(F)c(C(F)(F)F)c2)[C@H]2CC[C@@H]1/C2=C\C1CCC1 [compound 921] |
| 0.004 | CCCCC1[C@H]2CC[C@@H]1[C@H](C(=O)Nc1ccc(F)c(C(F)(F)F)c1)[C@@H]2NC(=O)c1cc(C2=NOC3CC(CO)CC23)ccc1OC (stereo partly shown) [Example 467] |
| 0.0033 | COc1ccc(-c2cc(C(CC(=O)O)C(F)(F)F)ccc2F)cc1C(=O)N[C@H]1[C@@H](C(=O)Nc2ccc(F)c(C(F)(F)F)c2)[C@H]2CC[C@@H]1/C2=C\C1CC1 (stereo partly shown) [compound 873] |
| 0.0031 | COC(=O)N1Cc2cccc(-c3ccc(OC)c(C(=O)N[C@@H]4C5CCC(/C5=C/C5CC5)[C@@H]4C(=O)Nc4ccc(F)c(C(F)(F)F)c4)c3)c2C1 (stereo partly shown) [compound 881] |
| 0.003 | COc1ccc(-c2cc(C(OC(=O)NC3CCCC3)C(F)(F)F)ccc2F)cc1C(=O)N[C@@H]1C2CCC(/C2=C/C2CC2)[C@@H]1C(=O)Nc1ccc(F)c(C(F)(F)F)c1 (stereo partly shown) [compound 219] |
| 0.0013 | COc1ccc(C2=NOC3CC(C(C)O)CC23)cc1C(=O)N[C@H]1[C@@H](C(=O)Nc2ccc(F)c(C(F)(F)F)c2)[C@H]2CC[C@@H]1/C2=C\C1CC1 (stereo partly shown) [compound 845] |
| 0.001 | COc1c(F)cc(C2=NOC3CC(CO)CC23)cc1C(=O)N[C@H]1[C@@H](C(=O)N[C@H](C)C2(C)CC2(F)F)[C@H]2CC[C@@H]1/C2=C\C1CC1 (stereo partly shown) [compound 759] |
